Experimental data published in patent US20260102383A1, “LPAR1 Inhibitors” (AbbVie Inc., priority 2024, published 2026).

Target: T1, human LPAR1 (Homo sapiens, UniProt Q92633)
T1 construct: host or cells: TangoEDG2-bla U2OS cells
Assay: Arrestin assay (Arrestin Reporter EDG2-bla U2OS), inhibition of LPA-stimulated signal
Type: cell-based
Conditions: TangoEDG2-bla U2OS cells expressing human LPAR1; 0.25 μM LPA; read-out: Arrestin Reporter EDG2-bla U2OS Human Merged IC50
Summary of the method: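 TangoEDG2-bla U2OS cells (1×10^4/well, plated 18-20 h) were preincubated 1 h at 37 °C with compound (12-point, 3-fold, 10 μM to 0.00006 μM), then stimulated 3 h with 0.25 μM LPA final. LiveBLAzer FRET B/G 460/530 nm emission ratio gave % inhibition; IC50 from 4-parameter variable-slope fit.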

T1 sequence (Q92633 whole entry): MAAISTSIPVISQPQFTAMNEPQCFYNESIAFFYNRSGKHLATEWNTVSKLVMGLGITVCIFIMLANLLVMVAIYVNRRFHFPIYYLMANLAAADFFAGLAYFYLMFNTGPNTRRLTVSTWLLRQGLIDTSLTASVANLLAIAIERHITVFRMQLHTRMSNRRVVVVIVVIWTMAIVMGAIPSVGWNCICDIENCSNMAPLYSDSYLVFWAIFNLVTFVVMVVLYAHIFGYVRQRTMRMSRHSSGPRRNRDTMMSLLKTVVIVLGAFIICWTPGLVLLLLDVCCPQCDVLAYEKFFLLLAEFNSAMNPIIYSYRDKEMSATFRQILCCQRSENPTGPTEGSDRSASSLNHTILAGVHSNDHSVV

Row | Compound | IC50 [nM]
1 | CCOC(=O)N1CC(CN2CCC(C(=O)Nc3ccc(Cl)cc3OC(F)F)(n3nccc3C(C)C)CC2)(C(=O)O)C1 [Compound 97, 3-[[4-[[4-chloro-2-(difluoromethoxy)phenyl]carbamoyl]-4-(5-isopropylpyrazol-1-yl)-1-piperidyl]methyl]-1-ethoxycarbonyl-azetidine-3-carboxylic acid] | 122
2 | CCC(=O)N1CCC(CN2CCC(C(=O)Nc3ccc(Cl)cc3OC(F)F)(n3ncc(OC)c3C(C)C)CC2)(C(=O)O)CC1 [Compound 98, 4-[[4-[[4-chloro-2-(difluoromethoxy)phenyl]carbamoyl]-4-(5-isopropyl-4-methoxy-pyrazol-1-yl)-1-piperidyl]methyl]-1-propanoyl-piperidine-4-carboxylic acid] | 121
3 | CCOC(=O)N1CCC(CN2CCC(C(=O)Nc3ccc(Cl)cc3OC(F)F)(n3ncc(OC)c3C(C)C)CC2)(C(=O)O)CC1 [Compound 99, 4-[[4-[[4-chloro-2-(difluoromethoxy)phenyl]carbamoyl]-4-(5-isopropyl-4-methoxy-pyrazol-1-yl)-1-piperidyl]methyl]-1-ethoxycarbonyl-piperidine-4-carboxylic acid] | 32.1
4 | CCC(=O)N1CC[C@@](CN2CCC(C(=O)Nc3ccc(Cl)cc3OC(F)F)(n3nccc3C(C)C)CC2)(C(=O)O)C1 [Compound 100, (3S)-3-[[4-[[4-chloro-2-(difluoromethoxy)phenyl]carbamoyl]-4-(5-isopropylpyrazol-1-yl)-1-piperidyl]methyl]-1-propanoyl-pyrrolidine-3-carboxylic acid] | 78.5
5 | CCC(=O)N1CC[C@](CN2CCC(C(=O)Nc3ccc(Cl)cc3OC(F)F)(n3nccc3C(C)C)CC2)(C(=O)O)C1 [Compound 101, (3R)-3-[[4-[[4-chloro-2-(difluoromethoxy)phenyl]carbamoyl]-4-(5-isopropylpyrazol-1-yl)-1-piperidyl]methyl]-1-propanoyl-pyrrolidine-3-carboxylic acid] | 80.9
6 | COCCC(=O)N1CC(CN2CCC(C(=O)Nc3ccc(Cl)cc3OC(F)F)(n3nccc3C(C)C)CC2)(C(=O)O)C1 [Compound 102, 3-[[4-[[4-chloro-2-(difluoromethoxy)phenyl]carbamoyl]-4-(5-isopropylpyrazol-1-yl)-1-piperidyl]methyl]-1-(3-methoxypropanoyl) azetidine-3-carboxylic acid] | 158
7 | CC1(C)COc2cnn(C3(C(=O)Nc4ccc(Cl)cc4OC(F)F)CCN([C@H]4C[C@@H](C(=O)O)C4)CC3)c21 [Compound 103, (1s,3s)-3-[4-[[4-chloro-2-(difluoromethoxy)phenyl]carbamoyl]-4-(6,6-dimethyl-5H-furo[3,2-c]pyrazol-1-yl)-1-piperidyl]cyclobutanecarboxylic acid] | 164
8 | CC1CCc2cnn(C3(C(=O)Nc4ccc(Cl)cc4OC(F)F)CCN([C@H]4C[C@@H](C(=O)O)C4)CC3)c21 (stereo partly drawn) [Compound 104, (1s,3s)-3-[4-[[4-chloro-2-(difluoromethoxy)phenyl]carbamoyl]-4-(6-methyl-5,6-dibydro-4H-cyclopenta[c]pyrazol-1-yl)-1-piperidyl] cyclobutanecarboxylic acid] | 44.7
9 | COCC(CN1CCC(C(=O)Nc2ccc(Cl)cc2OC(F)F)(n2nccc2C(C)C)CC1)C(=O)O (stereo not drawn) [Compound 105, 2-[[4-[[4-chloro-2-(difluoromethoxy)phenyl]carbamoyl]-4-(5-isopropylpyrazol-1-yl)-1-piperidyl]methyl]-3-methoxy-propanoic acid] | 26.9
10 | CC(C)c1ccnn1C1(C(=O)Nc2ccc(Cl)cc2OC(F)F)CCN([C@H]2C[C@@](C(=O)O)(C(F)(F)F)C2)CC1 [Compound 107, (1s,3s)-3-[4-[[4-chloro-2-(difluoromethoxy)phenyl]carbamoyl]-4-(5-isopropylpyrazol-1-yl)-1-piperidyl]-1-(trifluoromethyl) cyclobutanecarboxylic acid] | 40.1
11 | CC(C)c1ccnn1C1(C(=O)Nc2ccc(Cl)cc2OC(F)F)CCN([C@H]2C[C@](C(=O)O)(C(F)(F)F)C2)CC1 [Compound 108, (1r,3r)-3-[4-[[4-chloro-2-(difluoromethoxy)phenyl]carbamoyl]-4-(5-isopropylpyrazol-1-yl)-1-piperidyl]-1-(trifluoromethyl)cyclobutanecarboxylic acid] | 55.8
12 | CC(C)c1ccnn1C1(C(=O)Nc2ccc(Cl)cc2OC(F)F)CCN(CC2(C(=O)O)CCN(C(=O)O[C@H]3CCOC3)CC2)CC1 [Compound 109] | 94.9
13 | CC(C)c1ccnn1C1(C(=O)Nc2ccc(Cl)cc2OC(F)F)CCN(CC2(C(=O)O)CCN(C(=O)O[C@@H]3CCOC3)CC2)CC1 [Compound 110, 4-[[4-[[4-chloro-2-(difluoromethoxy)phenyl]carbamoyl]-4-(5-isopropylpyrazol-1-yl)-1-piperidyl]methyl]-1-[(3R)-tetrahydrofuran-3-yl]oxycarbonyl-piperidine-4-carboxylic acid] | 75.5
14 | CC(C)c1ccnn1C1(C(=O)Nc2ccc(Cl)cc2OC(F)F)CCN([C@H]2C[C@](C#N)(C(=O)O)C2)CC1 [Compound 111, (1r,3r)-3-[4-[[4-chloro-2-(difluoromethoxy)phenyl]carbamoyl]-4-(5-isopropylpyrazol-1-yl)-1-piperidyl]-1-cyano-cyclobutanecarboxylic acid] | 221
15 | CC(C)c1ccnn1C1(C(=O)Nc2ccc(Cl)cc2OC(F)F)CCN([C@H]2C[C@@](C#N)(C(=O)O)C2)CC1 [Compound 112, (1s,3s)-3-[4-[[4-chloro-2-(difluoromethoxy)phenyl]carbamoyl]-4-(5-isopropylpyrazol-1-yl)-1-piperidyl]-1-cyano-cyclobutanecarboxylic acid] | 309
16 | CC(C)c1ccnn1C1(C(=O)Nc2ccc(Cl)cc2OC(F)F)CCN(C2COC(C(=O)O)C2)CC1 (stereo not drawn) [Compound 113, 4-[4-[[4-chloro-2-(difluoromethoxy)phenyl]carbamoyl]-4-(5-isopropylpyrazol-1-yl)-1-piperidyl]tetrahydrofuran-2-carboxylic acid] | 141
17 | CC1(C)CCc2cnn(C3(C(=O)Nc4ccc(Cl)cc4OC(F)F)CCN(C[C@@H]4CC[C@H]4C(=O)O)CC3)c21 [Compound 115, (1R.2R)-2-[[4-[[4-chloro-2-(difluoromethoxy)phenyl]carbamoyl]-4-(6,6-dimethyl-4,5-dibydrocyclopenta[c]pyrazol-1-yl)-1-piperidyl]methyl] cyclobutanecarboxylic acid] | 82.5
18 | CC(C)c1ccnn1C1(C(=O)Nc2ccc(Cl)cc2OC(F)F)CCN(CC(C(=O)O)N2CCOCC2)CC1 (stereo not drawn) [Compound 116, 3-[4-[[4-chloro-2-(difluoromethoxy)phenyl]carbamoyl]-4-(5-isopropylpyrazol-1-yl)-1-piperidyl]-2-morpholino-propanoic acid] | 129
19 | C=C(CN1CCC(C(=O)Nc2ccc(Cl)cc2OC(F)F)(n2nccc2C(C)C)CC1)C(C)(C)C(=O)O [Compound 117, 3-[[4-[[4-chloro-2-(difluoromethoxy)phenyl]carbamoyl]-4-(5-isopropylpyrazol-1-yl)-1-piperidyl]methyl]-2,2-dimethyl-but-3-enoic acid] | 49
20 | COC[C@H](CN1CCC(C(=O)Nc2ccc(Cl)cc2OC(F)F)(n2nccc2C(C)C)CC1)C(=O)O [Compound 118, (2S)-2-[[4-[[4-chloro-2-(difluoromethoxy)phenyl]carbamoyl]-4-(5-isopropylpyrazol-1-yl)-1-piperidyl]methyl]-3-methoxy-propanoic acid] | 20.8
21 | CC(C)c1ccnn1C1(C(=O)Nc2ccc(Cl)cc2OC(F)F)CCN(CC(CO)C(=O)O)CC1 (stereo not drawn) [Compound 120, 2-[[4-[[4-chloro-2-(difluoromethoxy)phenyl]carbamoyl]-4-(5-isopropylpyrazol-1-yl)-1-piperidyl]methyl]-3-hydroxy-propanoic acid] | 34.7
22 | CC(C)c1ccnn1C1(C(=O)Nc2ccc(Cl)cc2OC(F)F)CCN(C2CC(O)(C(=O)O)C2)CC1 (stereo not drawn) [Compound 121, 3-[4-[[4-chloro-2-(difluoromethoxy)phenyl]carbamoyl]-4-(5-isopropylpyrazol-1-yl)-1-piperidyl]-1-hydroxy-cyclobutanecarboxylic acid] | 48.8
23 | CC[C@H](CN1CCC(C(=O)Nc2ccc(Cl)cc2OC(F)F)(n2nccc2C(C)C)CC1)C(=O)O [Compound 122, (2R)-2-[[4-[[4-chloro-2-(difluoromethoxy)phenyl]carbamoyl]-4-(5-isopropylpyrazol-1-yl)-1-piperidyl]methyl]butanoic acid] | 23.9
24 | CC(C)c1ccnn1C1(C(=O)Nc2ccc(Cl)cc2OC(F)F)CCN(C2CC(NC(=O)OC(C)(C)C)(C(=O)O)C2)CC1 (stereo not drawn) [Compound 124, 1-(tert-butoxycarbonylamino)-3-[4-[[4-chloro-2-(difluoromethoxy)phenyl]carbamoyl]-4-(5-isopropylpyrazol-1-yl)-1-piperidyl] cyclobutanecarboxylic acid] | 49.3
25 | CC(C)c1ccnn1C1(C(=O)Nc2ccc(Cl)cc2OC(F)F)CCN(CC(CN2CCOCC2)C(=O)O)CC1 (stereo not drawn) [Compound 125, 2-[[4-[[4-chloro-2-(difluoromethoxy)phenyl]carbamoyl]-4-(5-isopropylpyrazol-1-yl)-1-piperidyl]methyl]-3-morpholino-propanoic acid] | 113
26 | CC[C@@H](CN1CCC(C(=O)Nc2ccc(Cl)cc2OC(F)F)(n2nccc2C(C)C)CC1)C(=O)O [Compound 126, (2S)-2-[[4-[[4-chloro-2-(difluoromethoxy)phenyl]carbamoyl]-4-(5-isopropylpyrazol-1-yl)-1-piperidyl]methyl] butanoic acid] | 22.1
27 | CC(C)c1ccnn1C1(C(=O)Nc2ccc(Cl)cc2OC(F)F)CCN([C@H]2C[C@@]3(C[C@@H]3C(=O)O)C2)CC1 [Compound 127, (1S,3r,5R)-5-[4-[[4-chloro-2-(difluoromethoxy)phenyl]carbamoyl]-4-(5-isopropylpyrazol-1-yl)-1-piperidyl]spiro[2.3] hexane-2-carboxylic acid] | 31.9
